{"source": "the Kinase Knowledgebase extract (Sharma et al. 2016)", "data": [{"target": "MAPK14 (human) (UniProt Q16539)", "sequence (Q16539 whole entry, looked up)": "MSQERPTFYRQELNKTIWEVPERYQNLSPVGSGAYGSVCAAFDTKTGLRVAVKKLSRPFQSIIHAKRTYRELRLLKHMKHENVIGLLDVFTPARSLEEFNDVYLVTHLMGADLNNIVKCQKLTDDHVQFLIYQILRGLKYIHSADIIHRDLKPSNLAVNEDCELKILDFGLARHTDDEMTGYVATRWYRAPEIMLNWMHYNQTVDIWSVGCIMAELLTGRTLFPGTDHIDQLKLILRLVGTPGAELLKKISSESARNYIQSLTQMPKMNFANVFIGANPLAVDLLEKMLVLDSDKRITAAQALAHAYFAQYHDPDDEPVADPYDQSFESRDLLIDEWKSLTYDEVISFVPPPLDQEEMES", "experiment": "Inhibition of MAPK14 Kinase Activity", "units": {"IC50": "µM"}, "values": [{"compound": "O=C1CCC(Cc2ccccc2Cl)CN1c1c(Cl)cncc1Cl", "note": "(stereo not given)", "IC50": "≤ 10"}, {"compound": "O=C1CCC(Sc2ccc(F)cc2F)CN1C1C(Cl)CCC(CO)C1Cl", "note": "(stereo not given)", "IC50": "≤ 10"}, {"compound": "O=C(Cc1ccccc1)Nc1cc(Cl)c(N2CC(Cc3ccc(F)cc3F)CSC2=O)c(Cl)c1", "note": "(stereo not given)", "IC50": "≤ 10"}, {"compound": "Nc1cc(Cl)c(N2CC(Sc3ccc(F)cc3F)CCC2=O)c(Cl)c1", "note": "(stereo not given)", "IC50": "≤ 10"}, {"compound": "CN1CC(Cc2ccc(Cl)cc2Cl)CN(c2c(Cl)cccc2Cl)C1=O", "note": "(stereo not given)", "IC50": "≤ 10"}, {"compound": "O=C1CCC(Oc2ccccc2)CN1c1c(Cl)ccnc1Cl", "note": "(stereo not given)", "IC50": "≤ 10"}, {"compound": "O=C(Cc1ccccc1)Nc1cc(Cl)c(N2CC(Cc3ccc(F)cc3F)COC2=O)c(Cl)c1", "note": "(stereo not given)", "IC50": "≤ 10"}, {"compound": "Cc1cc(NC(=O)OC(C)(C)C)cc(C)c1N1CC(Cc2ccc(F)cc2F)CNC1=O", "note": "(stereo not given)", "IC50": "≤ 10"}, {"compound": "O=C(Cc1ccccc1)Nc1cnc(Cl)c(N2CC(Sc3ccc(F)cc3F)CCC2=O)c1Cl", "note": "(stereo not given)", "IC50": "≤ 10"}, {"compound": "O=C1CCC(Oc2cc(F)cc(F)c2)CN1c1c(Cl)ccnc1Cl", "note": "(stereo not given)", "IC50": "≤ 10"}, {"compound": "CC(C)(C)OC(=O)N(CC(N)=O)c1cc(Cl)c(N2CC(Cc3ccc(F)cc3F)CCC2=O)c(Cl)c1", "note": "(stereo not given)", "IC50": "≤ 10"}, {"compound": "O=C1CCC(Cc2ccc(F)cc2F)CN1c1c(Cl)cc(NCCN2CCCCC2)cc1Cl", "note": "(stereo not given)", "IC50": "≤ 10"}, {"compound": "Cc1cc(C(=O)NCCN(C)C)cc(C)c1N1CC(Cc2ccc(F)cc2F)CCC1=O", "note": "(stereo not given)", "IC50": "≤ 10"}, {"compound": "O=C1CC/C(=C\\c2ccc(F)cc2F)CN1c1c(Cl)cc(Br)cc1Cl", "IC50": "≤ 10"}, {"compound": "CC(=O)Nc1cc(Cl)c(N2CC(Oc3ccc(F)cc3F)CCC2=O)c(Cl)n1", "note": "(stereo not given)", "IC50": "≤ 10"}, {"compound": "CC(C)(C)OC(=O)N(CCN)c1cc(Cl)c(N2CC(Cc3ccc(F)cc3F)CCC2=O)c(Cl)c1", "note": "(stereo not given)", "IC50": "≤ 10"}, {"compound": "Cc1ccccc1CC1CCC(=O)N(C2C(Cl)CCCC2Cl)C1", "note": "(stereo not given)", "IC50": "≤ 10"}, {"compound": "COc1ccc(CC2CN(C)C(=O)N(c3c(Cl)cccc3Cl)C2)cc1", "note": "(stereo not given)", "IC50": "≤ 10"}, {"compound": "O=C1OCC(Cc2ccc(F)cc2F)CN1c1c(Cl)ccc(O)c1Cl", "note": "(stereo not given)", "IC50": "≤ 10"}, {"compound": "O=C1CCC(Sc2ccc(F)cc2F)CN1C1C(Cl)CCCC1Cl", "note": "(stereo not given)", "IC50": "≤ 10"}, {"compound": "COC(=O)c1cc(Cl)c(N2CC(Cc3ccc(F)cc3F)CCC2=O)c(Cl)c1", "note": "(stereo not given)", "IC50": "≤ 10"}, {"compound": "Cc1ccccc1CC1CN(C)C(=O)N(c2c(Cl)cccc2Cl)C1", "note": "(stereo not given)", "IC50": "≤ 10"}, {"compound": "O=C1OCC(Cc2ccc(F)cc2F)CN1c1c(Cl)cccc1Cl", "note": "(stereo not given)", "IC50": "≤ 10"}, {"compound": "O=C1CCC(Oc2ccc(F)cc2F)CN1c1c(Cl)ncc(O)c1Cl", "note": "(stereo not given)", "IC50": "≤ 10"}, {"compound": "O=C1CNC(Cc2ccc(F)cc2F)CN1c1c(Cl)cccc1Cl", "note": "(stereo not given)", "IC50": "≤ 10"}, {"compound": "O=C1CCC(Cc2cc(F)cc(F)c2)CN1c1c(Cl)ccnc1Cl", "note": "(stereo not given)", "IC50": "≤ 10"}, {"compound": "O=C1CCC(Cc2ccc(F)cc2F)CN1c1c(Cl)cc(NCCO)cc1Cl", "note": "(stereo not given)", "IC50": "≤ 10"}, {"compound": "CC(=O)NC1CC(Cl)C(N2CC(Cc3ccc(F)cc3F)CCC2=O)C(Cl)C1", "note": "(stereo not given)", "IC50": "≤ 10"}, {"compound": "Nc1cc(Cl)c(N2CC(C(=NO)c3ccc(F)cc3F)CCC2=O)c(Cl)c1", "note": "(stereo not given)", "IC50": "≤ 10"}, {"compound": "O=C1CCC(Cc2ccc(Cl)cc2Cl)CN1c1c(Cl)cccc1Cl", "note": "(stereo not given)", "IC50": "≤ 10"}, {"compound": "CNC1CC(Cl)C(N2CC(Cc3ccc(F)cc3F)CCC2=O)C(Cl)C1", "note": "(stereo not given)", "IC50": "≤ 10"}, {"compound": "O=C1CCC(Cc2ccc(F)cc2F)CN1c1ccccc1CCO", "note": "(stereo not given)", "IC50": "≤ 10"}, {"compound": "O=C1CCC(Sc2ccccc2)CN1c1c(Cl)cccc1Cl", "note": "(stereo not given)", "IC50": "≤ 10"}, {"compound": "CS(=O)(=O)Nc1cc(Cl)c(N2CC(Cc3ccc(F)cc3F)CCC2=O)c(Cl)c1", "note": "(stereo not given)", "IC50": "≤ 10"}, {"compound": "O=C(Cc1ccccc1)Nc1sc(Cl)c(N2CC(Oc3ccc(F)cc3F)CCC2=O)c1Cl", "note": "(stereo not given)", "IC50": "≤ 10"}, {"compound": "O=C1CCC(Sc2ccccc2)CN1c1c(Cl)csc1Cl", "note": "(stereo not given)", "IC50": "≤ 10"}, {"compound": "O=C1CCC(Oc2ccc3ccccc3c2)CN1C1C(Cl)CCCC1Cl", "note": "(stereo not given)", "IC50": "≤ 10"}, {"compound": "O=C1CCC(Sc2cc(F)cc(F)c2)CN1c1c(Cl)csc1Cl", "note": "(stereo not given)", "IC50": "≤ 10"}, {"compound": "O=C1CC/C(=C\\c2ccc(F)cc2F)CN1c1c(Cl)cccc1Cl", "IC50": "≤ 10"}, {"compound": "CC(C)(C)OC(=O)N1CCC(Nc2cc(Cl)c(N3CC(Cc4ccc(F)cc4F)CCC3=O)c(Cl)c2)CC1", "note": "(stereo not given)", "IC50": "≤ 10"}, {"compound": "Cc1ccc(CC2CCC(=O)N(c3c(Cl)cccc3Cl)C2)cc1", "note": "(stereo not given)", "IC50": "≤ 10"}, {"compound": "O=C1CCC(Cc2cccc3ccccc23)CN1c1c(Cl)cccc1Cl", "note": "(stereo not given)", "IC50": "≤ 10"}, {"compound": "COC(=O)c1cc(C)c(N2C[C@@H](Cc3ccc(F)cc3F)C[C@@H](C)C2=O)c(C)c1", "IC50": "≤ 10"}, {"compound": "O=C1CCC(Cc2cc(F)cc(F)c2)CN1c1c(Cl)csc1Cl", "note": "(stereo not given)", "IC50": "≤ 10"}, {"compound": "O=C1CCC(Cc2ccc(F)cc2F)CN1c1cc(NCCO)ccc1Cl", "note": "(stereo not given)", "IC50": "≤ 10"}, {"compound": "O=C1CCC(Oc2ccc(Cl)cc2Cl)CN1c1c(Cl)csc1Cl", "note": "(stereo not given)", "IC50": "≤ 10"}, {"compound": "CC(=O)NC1CCC(Cl)C(N2CC(Cc3ccc(F)cc3F)CCC2=O)C1Cl", "note": "(stereo not given)", "IC50": "≤ 10"}, {"compound": "O=C1CCC(Cc2ccc(F)cc2F)CN1c1c(Cl)cnc(CO)c1Cl", "note": "(stereo not given)", "IC50": "≤ 10"}, {"compound": "O=C(CNc1cc(Cl)c(N2CC(Cc3ccc(F)cc3F)CCC2=O)c(Cl)c1)NO", "note": "(stereo not given)", "IC50": "≤ 10"}, {"compound": "O=C1SCC(Cc2ccccc2F)CN1c1c(Cl)cccc1Cl", "note": "(stereo not given)", "IC50": "≤ 10"}, {"compound": "O=C1CCC(Cc2cc(Cl)cc(Cl)c2)CN1c1c(Cl)csc1Cl", "note": "(stereo not given)", "IC50": "≤ 10"}, {"compound": "O=C1CCC(Oc2ccc(F)cc2F)CN1c1c(Cl)ccc(CO)c1Cl", "note": "(stereo not given)", "IC50": "≤ 10"}, {"compound": "O=C1CCC(Cc2cc(Cl)cc(Cl)c2)CN1C1C(Cl)CCCC1Cl", "note": "(stereo not given)", "IC50": "≤ 10"}, {"compound": "O=C1CCC(Sc2ccc(F)cc2F)CN1c1c(Cl)ccc(O)c1Cl", "note": "(stereo not given)", "IC50": "≤ 10"}, {"compound": "COC(=O)/C=C/c1cc(C)c(N2CC(Cc3ccc(F)cc3F)CCC2=O)c(C)c1", "note": "(stereo not given)", "IC50": "≤ 10"}, {"compound": "COCCOCOc1ccccc1CC1CCC(=O)N(c2c(C)cccc2C)C1", "note": "(stereo not given)", "IC50": "≤ 10"}, {"compound": "Cc1cc(CCCCCO)cc(C)c1N1CC(Cc2ccc(F)cc2F)CCC1=O", "note": "(stereo not given)", "IC50": "≤ 10"}, {"compound": "O=C1CCC(Oc2cccc3ccccc23)CN1c1c(Cl)ccnc1Cl", "note": "(stereo not given)", "IC50": "≤ 10"}, {"compound": "Cc1ccc(OC2CCC(=O)N(c3c(Cl)ccnc3Cl)C2)cc1", "note": "(stereo not given)", "IC50": "≤ 10"}, {"compound": "O=C1OCC(Cc2ccc3ccccc3c2)CN1c1c(Cl)cccc1Cl", "note": "(stereo not given)", "IC50": "≤ 10"}, {"compound": "O=C1SCC(Cc2ccc3ccccc3c2)CN1c1c(Cl)cccc1Cl", "note": "(stereo not given)", "IC50": "≤ 10"}, {"compound": "Cc1cc(C)cc(CC2CN(C)C(=O)N(c3c(Cl)cccc3Cl)C2)c1", "note": "(stereo not given)", "IC50": "≤ 10"}, {"compound": "O=C1CCC(Cc2ccc(Cl)cc2Cl)CN1c1c(Cl)cncc1Cl", "note": "(stereo not given)", "IC50": "≤ 10"}, {"compound": "CC1(C)NC(=O)N(CCNc2cc(Cl)c(N3CC(Cc4ccc(F)cc4F)CCC3=O)c(Cl)c2)C1=O", "note": "(stereo not given)", "IC50": "≤ 10"}, {"compound": "CN1CC(Cc2ccc(F)cc2F)CN(c2c(Cl)ccc(CO)c2Cl)C1=O", "note": "(stereo not given)", "IC50": "≤ 10"}, {"compound": "Cc1ccccc1CC1CCC(=O)N(c2c(Cl)ccnc2Cl)C1", "note": "(stereo not given)", "IC50": "≤ 10"}, {"compound": "O=C1CCC(Oc2ccc(F)cc2F)CN1c1c(Cl)sc(CO)c1Cl", "note": "(stereo not given)", "IC50": "≤ 10"}, {"compound": "Cc1ccccc1SC1CCC(=O)N(C2C(Cl)CCCC2Cl)C1", "note": "(stereo not given)", "IC50": "≤ 10"}, {"compound": "Cc1cc(C)cc(SC2CCC(=O)N(c3c(Cl)cncc3Cl)C2)c1", "note": "(stereo not given)", "IC50": "≤ 10"}, {"compound": "Cc1ccc(CC2CCC(=O)N(c3c(Cl)csc3Cl)C2)cc1", "note": "(stereo not given)", "IC50": "≤ 10"}, {"compound": "O=C1CCC(Cc2ccc(F)cc2F)CN1C1C(Cl)CCCC1Cl", "note": "(stereo not given)", "IC50": "≤ 10"}, {"compound": "O=C1CCC(Oc2ccc(Cl)cc2Cl)CN1c1c(Cl)cncc1Cl", "note": "(stereo not given)", "IC50": "≤ 10"}, {"compound": "Cc1ccccc1CC1CSC(=O)N(c2c(Cl)cccc2Cl)C1", "note": "(stereo not given)", "IC50": "≤ 10"}, {"compound": "Cc1ccccc1CC1CNC(=O)N(c2c(Cl)cccc2Cl)C1", "note": "(stereo not given)", "IC50": "≤ 10"}, {"compound": "CCOC(=O)CCCC(=O)Nc1cc(Cl)c(N2CC(Cc3ccc(F)cc3F)CCC2=O)c(Cl)c1", "note": "(stereo not given)", "IC50": "≤ 10"}, {"compound": "CC(=O)Nc1cc(Cl)c(N2CC(Cc3ccc(F)cc3F)OCC2=O)c(Cl)c1", "note": "(stereo not given)", "IC50": "≤ 10"}, {"compound": "O=C1SCC(Cc2ccc(F)cc2)CN1c1c(Cl)cccc1Cl", "note": "(stereo not given)", "IC50": "≤ 10"}, {"compound": "O=C1CCC(Oc2ccc(F)cc2F)CN1c1c(Cl)ccnc1Cl", "note": "(stereo not given)", "IC50": "≤ 10"}, {"compound": "Cc1cccc(C)c1N1CC(Cc2ccccc2OCC(=O)Nc2cc(C(C)(C)C)nn2C)CCC1=O", "note": "(stereo not given)", "IC50": "≤ 10"}, {"compound": "O=C1CCC(Cc2ccc(F)cc2F)CN1c1c(Cl)cc(C#CCCO)cc1Cl", "note": "(stereo not given)", "IC50": "≤ 10"}]}]}
